Laboratory results from patent US20250114345A1, “COMPOUNDS AND COMPOSITIONS AS CBP/P300 DEGRADERS AND USES THEREOF” (Oncopia Therapeutics, Inc. d/b/a/ SK Life Science Labs, priority 2023, published 2025).

Biological target: T1, p300 (Homo sapiens, UniProt Q09472)
T1 construct: host or cells: A549 P300 HiBit cells
Experiment: P300 degradation, HiBit technology in A549 P300 HiBit cells (2 h)
Format: cell-based
Details: 2 hrs post treatment; for Dmax: A549, A549 P300 HiBit cells; for DC50: A549 P300 HiBit cells
Procedure: p300 and CBP degradation potency and Dmax were determined using in cell western (ICW) assay technology in H1299 cells or HiBit technology in A549 HiBit cells.
A549 P300 HiBit and A549 CBP HiBit cells were plated in separate 384-well, TC treated, white-opaque, flat-bottomed microplate. Cells were plated at a cell density of 0.2×10^4 cells per well in assay media comprised of F-12K, 10% heat inactivated FBS, and 1% penicillin/streptomycin. Assay microplates containing HiBit cells were placed in a 37° C., 5% CO2, tissue culture incubator and left to equilibrate overnight. The next day cells were treated with serial dilutions of test compound made up of 10 mM stock solutions in DMSO. 384-Well plates containing treated cells were then placed back into a 37° C., 5% CO2, tissue culture incubator. Assay microplates containing A549 P300 HiBit cells were incubated for 2 hrs post treatment before P300 destruction was assessed, while microplates containing A549 CBP HiBit cells were incubated for 24 hrs post treatment before CBP destruction was determined. On the day of each assay time point, microplates were removed from the tissue culture incubator and prepared HiBit Lytic detection buffer (Promega, cat #N3O40) was added to each plate. Plates were covered with aluminum foil and incubated for ten minutes at room temperature on an orbital shaker. After incubation, luminescent signal of each plate was measured using the Envision instrument (Perkin Elmer).

T1 sequence (Q09472 whole entry): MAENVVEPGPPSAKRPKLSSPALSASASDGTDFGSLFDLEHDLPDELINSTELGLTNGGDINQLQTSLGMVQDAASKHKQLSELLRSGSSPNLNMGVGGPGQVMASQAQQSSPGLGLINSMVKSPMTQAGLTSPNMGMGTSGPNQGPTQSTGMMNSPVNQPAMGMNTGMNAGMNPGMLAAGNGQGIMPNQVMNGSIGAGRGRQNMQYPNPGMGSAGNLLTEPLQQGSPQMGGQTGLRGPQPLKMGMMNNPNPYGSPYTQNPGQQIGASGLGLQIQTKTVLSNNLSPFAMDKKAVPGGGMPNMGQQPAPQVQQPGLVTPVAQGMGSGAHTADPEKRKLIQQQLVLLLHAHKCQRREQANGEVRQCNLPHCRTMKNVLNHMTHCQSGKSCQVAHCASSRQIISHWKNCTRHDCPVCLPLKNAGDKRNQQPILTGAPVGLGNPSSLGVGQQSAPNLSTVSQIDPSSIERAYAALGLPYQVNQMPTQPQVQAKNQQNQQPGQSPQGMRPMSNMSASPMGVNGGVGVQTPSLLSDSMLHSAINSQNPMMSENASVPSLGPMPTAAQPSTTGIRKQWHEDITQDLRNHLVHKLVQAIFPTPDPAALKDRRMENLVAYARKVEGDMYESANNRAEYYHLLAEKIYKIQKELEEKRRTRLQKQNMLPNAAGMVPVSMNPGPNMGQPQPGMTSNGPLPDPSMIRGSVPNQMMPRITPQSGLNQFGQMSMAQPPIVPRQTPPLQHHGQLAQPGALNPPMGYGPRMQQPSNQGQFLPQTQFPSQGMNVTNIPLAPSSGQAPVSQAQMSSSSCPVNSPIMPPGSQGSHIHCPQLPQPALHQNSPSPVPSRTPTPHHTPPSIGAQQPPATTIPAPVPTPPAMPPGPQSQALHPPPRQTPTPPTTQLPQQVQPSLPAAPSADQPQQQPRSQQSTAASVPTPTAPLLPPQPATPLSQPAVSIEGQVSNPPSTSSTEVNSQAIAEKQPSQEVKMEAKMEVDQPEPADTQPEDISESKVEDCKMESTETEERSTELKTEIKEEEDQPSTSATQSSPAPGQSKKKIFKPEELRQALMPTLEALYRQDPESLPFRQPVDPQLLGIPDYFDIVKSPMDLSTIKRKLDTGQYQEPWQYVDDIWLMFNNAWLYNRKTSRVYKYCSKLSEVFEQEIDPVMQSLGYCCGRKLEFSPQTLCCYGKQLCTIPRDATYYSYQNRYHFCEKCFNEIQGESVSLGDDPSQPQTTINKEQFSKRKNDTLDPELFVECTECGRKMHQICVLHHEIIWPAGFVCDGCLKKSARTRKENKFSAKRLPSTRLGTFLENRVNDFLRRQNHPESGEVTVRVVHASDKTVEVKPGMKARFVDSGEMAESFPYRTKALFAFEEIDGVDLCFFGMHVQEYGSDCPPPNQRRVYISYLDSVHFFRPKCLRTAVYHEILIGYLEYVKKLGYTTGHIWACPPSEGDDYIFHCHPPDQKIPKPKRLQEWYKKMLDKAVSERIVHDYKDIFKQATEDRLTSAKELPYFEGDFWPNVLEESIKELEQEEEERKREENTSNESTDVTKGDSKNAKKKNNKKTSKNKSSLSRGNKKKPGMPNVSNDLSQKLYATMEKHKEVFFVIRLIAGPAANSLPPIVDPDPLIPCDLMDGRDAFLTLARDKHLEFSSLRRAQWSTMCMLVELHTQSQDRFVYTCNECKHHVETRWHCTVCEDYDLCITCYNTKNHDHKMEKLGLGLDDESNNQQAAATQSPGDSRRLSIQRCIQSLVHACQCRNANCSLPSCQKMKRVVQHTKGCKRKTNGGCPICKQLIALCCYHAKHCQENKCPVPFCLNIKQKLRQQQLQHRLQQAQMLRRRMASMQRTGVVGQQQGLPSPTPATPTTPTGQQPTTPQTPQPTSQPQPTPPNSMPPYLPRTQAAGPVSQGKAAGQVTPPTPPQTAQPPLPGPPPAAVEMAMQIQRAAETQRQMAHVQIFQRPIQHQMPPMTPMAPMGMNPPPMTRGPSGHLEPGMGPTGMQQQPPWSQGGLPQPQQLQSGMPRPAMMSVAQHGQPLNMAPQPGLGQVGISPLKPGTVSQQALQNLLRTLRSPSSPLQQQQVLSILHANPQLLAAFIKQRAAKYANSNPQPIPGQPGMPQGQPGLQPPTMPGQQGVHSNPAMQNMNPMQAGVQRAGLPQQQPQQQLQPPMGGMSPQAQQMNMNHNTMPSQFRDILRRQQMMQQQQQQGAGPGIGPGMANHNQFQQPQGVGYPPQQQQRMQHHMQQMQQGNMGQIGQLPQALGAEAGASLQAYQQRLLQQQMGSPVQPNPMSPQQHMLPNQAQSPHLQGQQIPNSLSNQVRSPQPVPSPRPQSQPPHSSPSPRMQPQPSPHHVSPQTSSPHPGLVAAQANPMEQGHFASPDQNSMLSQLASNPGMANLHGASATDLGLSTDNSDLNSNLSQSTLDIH

Dmax	DC50	Compound
< 20%	> 1000 nM	CC(C)c1cc(-c2cccc3cc(-c4ccc(C(=O)NCc5ccc(-c6cnn(C7CCC(=O)NC7=O)c6)cc5)nc4)ncc23)cc2c1n(C)c(=O)n2C (stereo not drawn) [Example A33, N-(4-(1-(2,6-Dioxopiperidin-3-yl)-1H-pyrazol-4-yl)benzyl)-5-(8-(7-isopropyl-1,3-dimethyl-2-oxo-2,3-dihydro-1H-benzo[d]imidazol-5-yl)isoquinolin-3-yl)picolinamide]
< 20%	> 1000 nM	CC(C)c1cc(N2CCCc3cc(-c4ccc(C(=O)NCc5ccc(-c6ccn(C7CCC(=O)NC7=O)n6)cc5)nc4)c(C(F)F)cc32)cc2c1n(C)c(=O)n2C (stereo not drawn) [Example A37, 5-(7-(Difluoromethyl)-1-(7-isopropyl-1,3-dimethyl-2-oxo-2,3-dihydro-1H-benzo[d]imidazol-5-yl)-1,2,3,4-tetrahydroquinolin-6-yl)-N-(4-(1-(2,6-dioxopiperidin-3-yl)-1H-pyrazol-3-yl)benzyl)picolinamide]
< 20%	> 1000 nM	CC(C)c1cc(-c2cccc3cc(-c4ccc(C(=O)NCC#Cc5ccc6c(c5)ncn6C5CCC(=O)NC5=O)nc4)ncc23)cc2c1n(C)c(=O)n2C (stereo not drawn) [Example A38, N-(3-(1-(2,6-Dioxopiperidin-3-yl)-1H-benzo[d]imidazol-5-yl)prop-2-yn-1-yl)-5-(8-(7-isopropyl-1,3-dimethyl-2-oxo-2,3-dihydro-1H-benzo[d]imidazol-5-yl)isoquinolin-3-yl)picolinamide]
> 80%	1 to 9.9 nM	Cc1cc(-c2ccc(N(C)c3cc(C4=CCOCC4)c4c(c3)n(C)c(=O)n4C)cn2)cnc1C(=O)NCC#Cc1cccc(NC2CCC(=O)NC2=O)c1 (stereo not drawn) [Example A40, 5-((7-(3,6-dihydro-2H-pyran-4-yl)-1,3-dimethyl-2-oxo-2,3-dihydro-1H-benzo[d]imidazol-5-yl)(methyl)amino)-N-(3-(3-((2,6-dioxopiperidin-3-yl)amino)phenyl)prop-2-yn-1-yl)-5′-methyl-[2,3′-bipyridine]-6′-carboxamide]
> 80%	10 to 99 nM	Cc1cc(-c2ccc(N(C)c3cc(C(C)C)c4c(c3)n(C)c(=O)n4C)cc2C(F)F)cnc1C(=O)NCC#Cc1cccc(NC2CCC(=O)NC2=O)c1 (stereo not drawn) [Example A41, 5-(2-(difluoromethyl)-4-((7-isopropyl-1,3-dimethyl-2-oxo-2,3-dihydro-1H-benzo[d]imidazol-5-yl) (methyl)amino)phenyl)-N-(3-(3-((2,6-dioxopiperidin-3-yl)amino)phenyl)-prop-2-yn-1-yl)-3-methylpicolinamide]
> 80%	1 to 9.9 nM	Cc1cc(-n2ccc(N(C)c3cc(C(C)C)c4c(c3)n(C)c(=O)n4C)cc2=O)cnc1C(=O)NCC#Cc1cccc(NC2CCC(=O)NC2=O)c1 (stereo not drawn) [Example A42, N-(3-(3-((2,6-dioxopiperidin-3-yl)amino)phenyl)prop-2-yn-1-yl)-4-((7-isopropyl-1,3-dimethyl-2-oxo-2,3-dihydro-1H-benzo [d]imidazol-5-yl)(methyl)amino)-5′-methyl-2-oxo-2H-[1,3′-bipyridine]-6′-carboxamide]
60 to 79%	100 to 999 nM	Cc1cc(-c2ccc(N(C)c3cc(C(C)C)c4c(c3)n(C)c(=O)n4C)cc2)cnc1C(=O)NCC#Cc1cccc(NC2CCC(=O)NC2=O)c1 (stereo not drawn) [Example A43, N-(3-(3-((2,6-dioxopiperidin-3-yl)amino)phenyl)prop-2-yn-1-yl)-5-(4-((7-isopropyl-1,3-dimethyl-2-oxo-2,3-dihydro-1H-benzo [d]imidazol-5-yl) (methyl)amino)phenyl)-3-methylpicolinamide]
60 to 79%	100 to 999 nM	Cc1cc(-c2ccc(N(C)c3cc(C(C)C)c4c(c3)n(C)c(=O)n4C)cc2Cl)cnc1C(=O)NCC#Cc1cccc(NC2CCC(=O)NC2=O)c1 (stereo not drawn) [Example A44, 5-(2-chloro-4-((7-isopropyl-1,3-dimethyl-2-oxo-2,3-dihydro-1H-benzo[d]imidazol-5-yl)(methyl)amino)phenyl)-N-(3-(3-((2,6-dioxopiperidin-3-yl)amino)phenyl)prop-2-yn-1-yl)-3-methylpicolinamide]
> 80%	10 to 99 nM	Cc1cc(-c2ccc(N(C)c3cc(C(C)C)c4c(c3)n(C)c(=O)n4C)cc2C#N)cnc1C(=O)NCC#Cc1cccc(NC2CCC(=O)NC2=O)c1 (stereo not drawn) [Example A46, 5-(2-cyano-4-((7-isopropyl-1,3-dimethyl-2-oxo-2,3-dihydro-1H-benzo[d]imidazol-5-yl)(methyl)amino)phenyl)-N-(3-(3-((2,6-dioxopiperidin-3-yl)amino)phenyl)prop-2-yn-1-yl)-3-methylpicolinamide]
> 80%	10 to 99 nM	Cc1cc(-c2ncc(N(C)c3cc(C(C)C)c4c(c3)n(C)c(=O)n4C)cc2F)cnc1C(=O)NCC#Cc1cccc(NC2CCC(=O)NC2=O)c1 (stereo not drawn) [Example A47, N-(3-(3-((2,6-dioxopiperidin-3-yl)amino)phenyl)prop-2-yn-1-yl)-3-fluoro-5-((7-isopropyl-1,3-dimethyl-2-oxo-2,3-dihydro-1H-benzo [d]imidazol-5-yl)(methyl)amino)-5′-methyl-[2,3′-bipyridine]-6′-carboxamide]
60 to 79%	10 to 99 nM	Cc1cc(-c2ccc(N(C)c3cc(C(C)C)c4c(c3)n(C)c(=O)n4C)cc2C(F)(F)F)cnc1C(=O)NCC#Cc1cccc(NC2CCC(=O)NC2=O)c1 (stereo not drawn) [Example A48, N-(3-(3-((2,6-dioxopiperidin-3-yl)amino)phenyl)prop-2-yn-1-yl)-5-(4-((7-isopropyl-1,3-dimethyl-2-oxo-2,3-dihydro-1H-benzo [d]imidazol-5-yl)(methyl)amino)-2-(trifluoromethyl)phenyl)-3-methylpicolinamide]
> 80%	10 to 99 nM	COc1cc(-c2ccc(N(C)c3cc(C(C)C)c4c(c3)n(C)c(=O)n4C)cn2)cnc1C(=O)NCC#Cc1cccc(NC2CCC(=O)NC2=O)c1 (stereo not drawn) [Example A49, N-(3-(3-((2,6-dioxopiperidin-3-yl)amino)phenyl)prop-2-yn-1-yl)-5-((7-isopropyl-1,3-dimethyl-2-oxo-2,3-dihydro-1H-benzo [d]imidazol-5-yl) (methyl)amino)-5′-methoxy-[2,3′-bipyridine]-6′-carboxamide]
> 80%	10 to 99 nM	Cc1cc(-c2cnc(N(C)c3cc(C(C)C)c4c(c3)n(C)c(=O)n4C)cn2)cnc1C(=O)NCC#Cc1cccc(NC2CCC(=O)NC2=O)c1 (stereo not drawn) [Example A50, N-(3-(3-((2,6-dioxopiperidin-3-yl)amino)phenyl)prop-2-yn-1-yl)-5-(5-((7-isopropyl-1,3-dimethyl-2-oxo-2,3-dihydro-1H-benzo [d]imidazol-5-yl)(methyl)amino)pyrazin-2-yl)-3-methylpicolinamide]
60 to 79%	100 to 999 nM	Cc1cc(-c2ccc(N(c3cc(C(C)C)c4c(c3)n(C)c(=O)n4C)C(F)(F)F)cn2)cnc1C(=O)NCC#Cc1cccc(NC2CCC(=O)NC2=O)c1 (stereo not drawn) [Example A52, N-(3-(3-((2,6-dioxopiperidin-3-yl)amino)phenyl)prop-2-yn-1-yl)-5-((7-isopropyl-1,3-dimethyl-2-oxo-2,3-dihydro-1H-benzo [d]imidazol-5-yl) (trifluoromethyl)amino)-5′-methyl-[2,3′-bipyridine]-6′-carboxamide]
< 20%	> 1000 nM	Cc1cc(-c2ccc(Nc3cc4c(c(C(C)C)n3)n(C)c(=O)n4C)cn2)cnc1C(=O)NCC#Cc1ccc2occ(C3CCC(=O)NC3=O)c2c1 (stereo not drawn) [Example A56, N-(3-(3-(2,6-dioxopiperidin-3-yl)benzofuran-5-yl)prop-2-yn-1-yl)-5-((4-isopropyl-1,3-dimethyl-2-oxo-2,3-dihydro-1H-imidazo[4,5-c]pyridin-6-yl)amino)-5′-methyl-[2,3′-bipyridine]-6′-carboxamide]
> 80%	1 to 9.9 nM	CC(C)c1cc(N(C)c2cnc(-c3ccc(C(=O)NCC#Cc4ccc5occ(C6CCC(=O)NC6=O)c5c4)nc3)cn2)cc2c1n(C)c(=O)n2C (stereo not drawn) [Example A59, N-(3-(3-(2,6-dioxopiperidin-3-yl)benzofuran-5-yl)prop-2-yn-1-yl)-5-(5-((7-isopropyl-1,3-dimethyl-2-oxo-2,3-dihydro-1H-benzo [d]imidazol-5-yl)(methyl)amino)pyrazin-2-yl)picolinamide]
< 20%	> 1000 nM	Cc1cc(-c2ccc(N(C)c3cc4c(c(C(C)C)n3)n(C)c(=O)n4C)cn2)cnc1C(=O)NCC#Cc1ccc2occ(C3CCC(=O)NC3=O)c2c1 (stereo not drawn) [Example A60, N-(3-(3-(2,6-dioxopiperidin-3-yl)benzofuran-5-yl)prop-2-yn-1-yl)-5-((4-isopropyl-1,3-dimethyl-2-oxo-2,3-dihydro-1H-imidazo[4,5-c]pyridin-6-yl)(methyl)amino)-5′-methyl-[2,3′-bipyridine]-6′-carboxamide]
> 80%	1 to 9.9 nM	Cc1cc(-c2cc3cccc(-c4ccc5c(c4)n(C)c(=O)n5C)c3cn2)cnc1C(=O)NCC#Cc1ccc2occ([C@H]3CCC(=O)NC3=O)c2c1 [Example A62, (R)-5-(8-(1,3-dimethyl-2-oxo-2,3-dihydro-1H-benzo[d]imidazol-5-yl)isoquinolin-3-yl)-N-(3-(3-(2,6-dioxo-piperidin-3-yl)benzofuran-5-yl)prop-2-yn-1-yl)-3-methylpicolinamide]
